From ChEMBL document CHEMBL5550202, “Rationally Designed Highly Potent NKT Cell Agonists with Different Cytokine Selectivity through Hydrogen-Bond Interaction” (J Med Chem, 2024) come the findings set out here.

The subject of series [1] is Splenocyte. Put plainly: Cytotoxicity against C57BL/6 mouse splenocytes assessed as reduction in cell viability at 10 to 1000 nM treated as liposomal formulation measured after 72 hrs by MTT assay. The series is classed as toxicity, cell-based. As to conditions: 1 µM, dose 10-1000 nM. (Tetrazolium dyes change colour on reduction, which living cells bring about.)
Series [2] relates to Splenocyte. Nature of the series: Induction of Th1-specific IFN-gamma secretion in C57BL/6 mouse splenocytes assessed as increase in IFN-gamma level in supernatant at 100 nM treated as liposomal formulation preincubated for 30 mins with anti-CD1d monoclonal antibody followed by compound addition and measured after 72 hrs by ELISA. The series is classed as functional, cell-based. On the technique in general: An ELISA detects its analyte on a solid surface through an enzyme-linked reagent.

Series [3] has as its system Splenocyte. Nature of the series: Induction of Th2-specific IL-4 secretion in C57BL/6 mouse splenocytes assessed as increase in IL-4 level in supernatant at 100 nM treated as liposomal formulation preincubated for 30 mins with anti-CD1d monoclonal antibody followed by compound addition and measured after 72 hrs by ELISA. It counts as functional, cell-based.
The test system of series [4] is Splenocyte. Put plainly: Ex vivo induction of Natural killer T cell mediated dendritic cell activation in C57BL/6 mouse splenocytes assessed as increase in CD80 expression on CD11c-positive dendritic cells at 2.33 nmol, ip administered as single dose in liposomal formulation measured after 24 hrs by flow cytometry analysis (reference value: 8.4%). It counts as functional. In general terms: In flow cytometry, cells or beads pass a laser one at a time.

Series [5] has as its system Splenocyte. Put plainly: Ex vivo induction of Natural killer T cell mediated dendritic cell activation in C57BL/6 mouse splenocytes assessed as increase in CD86 expression on CD11c-positive dendritic cells at 2.33 nmol, ip administered as single dose in liposomal formulation measured after 24 hrs by flow cytometry analysis (reference value: 8.9%). It counts as functional.

Series [6] deals with Splenocyte. Put plainly: Ex vivo induction of Natural killer T cell mediated dendritic cell activation in C57BL/6 mouse splenocytes assessed as increase in proportion of IFN-gamma positive natural killer cells at 2.33 nmol, ip administered as single dose in liposomal formulation measured after 24 hrs by flow cytometry analysis (reference value: 2.74%). The series is classed as functional.

For series [7], the system named is B16-F10. Nature of the series: Antitumor activity against mouse B16-F10 cells implanted in C57BL/6 mouse assessed as reduction in metastatic nodules in lung at 0.58 nmol, ip administered as single dose in liposomal formulation for 1 day followed by tumor inoculation and measured after 3 weeks. To be noted: time 22.0 day. The series is classed as functional, organism-based.

Series [8] deals with Mus musculus. Put plainly: Induction of Th1/2-balanced cytokine response in BALB/c mouse assessed as increase in IFN-gamma secretion in serum at 2.33 nmol, ip administered as single dose in liposomal formulation and measured after 24 hrs by ELISA. It counts as functional, organism-based.
The subject of series [9] is Mus musculus. Put plainly: Induction of Th1/2-balanced cytokine response in BALB/c mouse assessed as increase in IFN-gamma secretion in serum at 0.5 ug, ip administered as single dose in liposomal formulation and measured after 24 hrs by ELISA. The series is classed as functional, organism-based. As to conditions: dose 0.5 µg.
For series [10], the system named is Mus musculus. Put plainly: Induction of Th1/2-balanced cytokine response in BALB/c mouse assessed as increase in IL-4 secretion in serum at 0.5 ug, ip administered as single dose in liposomal formulation and measured after 24 hrs by ELISA. The series is classed as functional, organism-based. As to conditions: dose 0.5 µg.
In series [11] the test system is Mus musculus. Nature of the series: Induction of Th1/2-balanced cytokine response in BALB/c mouse assessed as increase in IFN-gamma/IL-4 secretion ratio at 0.5 ug, ip administered as single dose in liposomal formulation and measured after 24 hrs by ELISA. It counts as functional, organism-based. To be noted: dose 0.5 µg.
For series [12], the system named is Mus musculus. Nature of the series: Induction of Th1/2-balanced cytokine response in C57BL/6 mouse assessed as increase in IFN-gamma secretion in serum at 2.33 nmol, ip administered as single dose in liposomal formulation and measured for 48 hrs by ELISA. It counts as functional, organism-based.
Series [13] relates to Mus musculus. Put plainly: Induction of Th1/2-balanced cytokine response in C57BL/6 mouse assessed as increase in IL-4 secretion in serum at 2.33 nmol, ip administered as single dose in liposomal formulation and measured for 48 hrs by ELISA. It counts as functional, organism-based.
Series [14] deals with Mus musculus. Put plainly: Induction of Th1/2-balanced cytokine response in BALB/c mouse assessed as activation of immune cells by measuring increase in IL-12 release in serum at 2.33 nmol, ip administered as single dose in liposomal formulation and measured at 6 hrs by ELISA. The series is classed as functional, organism-based.
Series [15] is described as follows: Induction of Th1-specific IFN-gamma secretion in C57BL/6 mouse splenocytes assessed as fold increase in IFN-gamma level in supernatant at 1 nM treated as liposomal formulation and measured after 72 hrs by ELISA relative to alpha-galactosylceramide. It counts as functional, Splenocyte.
A short description of series [16]: Induction of Th1-specific IFN-gamma secretion in C57BL/6 mouse splenocytes assessed as fold increase in IFN-gamma level in supernatant at 10 nM treated as liposomal formulation and measured after 72 hrs by ELISA relative to alpha-galactosylceramide. It counts as functional, Splenocyte.
Series [17] relates to Splenocyte. Put plainly: Induction of Th2-specific IL-4 secretion in C57BL/6 mouse splenocytes assessed as increase in IL-4 level in supernatant at 1 to 10 nM treated as liposomal formulation and measured after 72 hrs by ELISA. It counts as functional, cell-based. As to conditions: dose 1-10 nM.
In series [18] the target is T1, Antigen-presenting glycoprotein CD1d (Mus musculus) (UniProt P11609+P11610). Nature of the series: Binding affinity to Cd1D in C57BL/6 mouse BMDC cells assessed as glycolipid presentation by measuring glycolipid/Cd1D complex formation at 100 nM treated as liposomal formulation and measured at 6 to 24 hrs by L363 cell surface staining based flow cytometry analysis. As to conditions: time 6-24 hrs.

In series [19] the target is T1, Antigen-presenting glycoprotein CD1d (Mus musculus). Put plainly: Binding affinity to Cd1D in C57BL/6 mouse BMDC cells assessed as glycolipid presentation by measuring glycolipid/Cd1D complex formation at 100 nM treated as liposomal formulation preincubated for 12 hrs and cells further recultured without compound for 2 to 12 hrs by pulse-chase analysis. The series is classed as cell-based.

For series [20] the target is unchanged. Put plainly: Binding affinity to Cd1D in intact C57BL/6 mouse BMDC cells assessed as glycolipid/Cd1D complex formation by measuring strong staining of cell membrane at 100 nM treated as liposomal formulation and measured after 18 hrs by L363 mAb staining based confocal microscopic analysis.
For series [21], the system named is B16-F10. Put plainly: Antitumor activity against mouse B16-F10 cells implanted in C57BL/6 mouse assessed as reduction in number of metastatic nodules in lung at 0.58 nmol, ip administered as single dose in liposomal formulation for 1 day followed by tumor inoculation and measured after 3 weeks relative to control. The series is classed as functional. Details: scale not given: the % may be the effect or the level left. To be noted: time 22 day.

In series [22] the test system is B16-F10. Put plainly: Antitumor activity against mouse B16-F10 cells implanted in C57BL/6 mouse assessed as suppression of tumor progression at 0.58 nmol, ip administered as single dose in liposomal formulation for 1 day followed by tumor inoculation and measured after 3 weeks. It counts as functional, organism-based. To be noted: time 22.0 day.
The subject of series [23] is B16-F10. Put plainly: Antitumor activity against mouse B16-F10 cells implanted in C57BL/6 mouse assessed as inhibition of lung metastasis at 0.58 nmol, ip administered as single dose in liposomal formulation for 1 day followed by tumor inoculation and measured after 3 weeks by H and E staining based analysis relative to control. As to conditions: time 22 day. The series is classed as functional.

In series [24] the test system is Mus musculus. Nature of the series: Induction of Th1/2-balanced cytokine response in BALB/c mouse assessed as fold increase in IL-4 secretion in serum at 2.33 nmol, ip administered as single dose in liposomal formulation and measured after 2 hrs by ELISA relative to control. It counts as functional.
For series [25], the system named is Mus musculus. Put plainly: Induction of Th1/2-balanced cytokine response in BALB/c mouse assessed as fold increase in IFN-gamma secretion in serum at 2.33 nmol, ip administered as single dose in liposomal formulation and measured after 24 hrs by ELISA relative to control. It counts as functional.
Series [26] relates to Mus musculus. Nature of the series: Induction of Th1/2-balanced cytokine response in BALB/c mouse assessed as fold increase in IL-4 secretion in serum at 2.33 nmol, ip administered as single dose in liposomal formulation and measured after 6 to 48 hrs by ELISA. To be noted: time 6-48 hrs. It counts as functional, organism-based.

The source made the active and inactive calls. The calls are words filed in the database; no cut-off is given here.

In the case of `CCCCCCCCCCCCCCCCCCCCCCCCCC(=O)N[C@@H](CO[C@H]1O[C@H](CO)[C@H](O)[C@H](O)[C@H]1O)[C@H](O)[C@H](O)CCCCCCCCCCCCCC` [RGI-7000], the Activity entry with Splenocyte [1] is “Non-Toxic”; with Splenocyte [4], 27.6%; in the series with Splenocyte [5], 32%; with Splenocyte [6] it was 6.11%. Moreover, the outcome with Splenocyte [2] and in the series with Splenocyte [3] was inactive. The outcome with B16-F10 [7] was Active.
Regarding `CCCCCCCCCCCCCC[C@@H](O)[C@@H](O)[C@H](CO[C@H]1O[C@H](CO)[C@H](O)[C@H](O)[C@H]1O)NC(=O)CCCCCCCCCCNS(=O)(=O)CCCCCCCCCCCCC`, the outcome in the series with Mus musculus [8], in the series on Mus musculus [9], in the series with Mus musculus [10], with Mus musculus [11], in the series on Mus musculus [12] and with Mus musculus [13] was Active. The result (with Mus musculus [14]; in [18]; in [19]; in series [20]; in the series with B16-F10 [7]; with B16-F10 [22]) was Active. Besides, the “fold change (FC)” value in series [15] is on record as 9.6; in series [16], 7.7. Besides, the outcome in the series on Splenocyte [17], with Splenocyte [2] and in the series with Splenocyte [3] was inactive. Also, the Activity result is reported as “Non-Toxic” in the series with Splenocyte [1]; 32.9% with Splenocyte [4]; 44.6% in the series on Splenocyte [5]; 11.2% with Splenocyte [6]; 82% in the series with B16-F10 [21]. Besides, the “inhibition (INH)” value in the series on B16-F10 [23] is given as about 100%.
Take `CCCCCCCCCCCCCC[C@@H](O)[C@@H](O)[C@H](CO[C@H]1O[C@H](CO)[C@H](O)[C@H](O)[C@H]1O)NC(=O)CCCCCCCCCCCCNS(=O)(=O)CCCCCCCCCCC`: the Activity entry with Splenocyte [1] was “Non-Toxic”. In addition, the result in the series on Splenocyte [2] and with Splenocyte [3] was inactive.
As to `CCCCCCCCCCCCCC[C@@H](O)[C@@H](O)[C@H](CO[C@H]1O[C@H](CO)[C@H](O)[C@H](O)[C@H]1O)NC(=O)CCCCCCCCCCCNS(=O)(=O)CCCCCCCCCCCC`, the “fold change (FC)” value in the series on Mus musculus [24] worked out at 4.7; in the series with Mus musculus [25], 7; in series [15] it was 6.2; in series [16], 4.7. Further, the outcome with Mus musculus [9], with Mus musculus [10], in the series with Mus musculus [11], with Mus musculus [12], in the series with Mus musculus [13] and in the series on Mus musculus [14] was Active. For the same compound, the outcome (in series [18]; in [20]; in the series on B16-F10 [7]) was Active. For the same compound, the outcome in the series with Splenocyte [17], with Splenocyte [2], in the series with Splenocyte [3] and in the series on Mus musculus [26] was inactive. Besides, the Activity result was “Non-Toxic” in the series with Splenocyte [1]; 33.9% in the series on Splenocyte [4]; 46.8% with Splenocyte [5]; 12% with Splenocyte [6]; 66% in the series on B16-F10 [21].
Consider `CCCCCCCCCCCCCC[C@@H](O)[C@@H](O)[C@H](CO[C@H]1O[C@H](CO)[C@H](O)[C@H](O)[C@H]1O)NC(=O)CCCCCCCCCCCCCNS(=O)(=O)CCCCCCCCCC`, for which, in the series with Splenocyte [1], the Activity result is listed as “Non-Toxic”. Also, the outcome with Splenocyte [2] and in the series with Splenocyte [3] was inactive.
With `CCCCCCCCCCCCCC[C@@H](O)[C@@H](O)[C@H](CO[C@H]1O[C@H](CO)[C@H](O)[C@H](O)[C@H]1O)NC(=O)CCCCCCCCCNS(=O)(=O)CCCCCCCCCCCCCC`, the Activity entry in the series on Splenocyte [1] is on record as “Non-Toxic”. Further, the result with Splenocyte [2] and with Splenocyte [3] was inactive.
